From patent publication US9458104B2 (priority 2012, dated 2016)

Assays:
RORγ = molecular target: T1, RORγ (UniProt P51449); type: cell-based; details: 293T cells, 16 h; for pIC50 (FF): firefly (FF) luciferase; for pIC50 (REN): renilla normalised (RENnorm) luciferase
T1 construct: hRORg-LBD|aa259-518|NP_005051.2; hRORgt|aa1-497|NP_001001523 (RORg, t isoform, 497aa); mRORg-LBD|aa264-516|NP_035411
T1 sequence (P51449 1-518): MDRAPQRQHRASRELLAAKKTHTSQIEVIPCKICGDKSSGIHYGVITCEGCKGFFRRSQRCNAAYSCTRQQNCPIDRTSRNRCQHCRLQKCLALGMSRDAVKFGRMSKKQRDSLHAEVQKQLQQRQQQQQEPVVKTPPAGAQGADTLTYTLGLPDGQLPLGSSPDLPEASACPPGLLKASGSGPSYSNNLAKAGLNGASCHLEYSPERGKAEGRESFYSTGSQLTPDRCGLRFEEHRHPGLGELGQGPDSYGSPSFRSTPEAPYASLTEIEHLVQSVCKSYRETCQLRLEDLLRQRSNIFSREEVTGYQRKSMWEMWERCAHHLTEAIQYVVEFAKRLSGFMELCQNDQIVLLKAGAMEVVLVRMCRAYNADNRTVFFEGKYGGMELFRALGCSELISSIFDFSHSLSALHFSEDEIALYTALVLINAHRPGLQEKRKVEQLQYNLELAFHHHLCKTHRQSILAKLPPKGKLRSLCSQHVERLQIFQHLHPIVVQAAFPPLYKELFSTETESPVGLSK

[1] = molecular target: T2, RORγ ligand binding domain (LBD) (Homo sapiens, UniProt P51449); assay: TR-FRET Activity Assay (ligand sensing assay, RORγ-LBD / coactivator peptide interaction); type: biochemical
T2 construct: made in house; host or cells: E. coli BL-21 (BL3), vector pDEST15
T2 sequence (P51449 269-508 limits assumed): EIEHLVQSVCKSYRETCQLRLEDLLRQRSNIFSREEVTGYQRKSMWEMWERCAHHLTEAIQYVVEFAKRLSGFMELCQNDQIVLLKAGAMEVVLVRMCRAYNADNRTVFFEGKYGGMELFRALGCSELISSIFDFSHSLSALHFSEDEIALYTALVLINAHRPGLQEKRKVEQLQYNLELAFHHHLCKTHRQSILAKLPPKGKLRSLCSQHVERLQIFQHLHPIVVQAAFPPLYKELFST
How it was run: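 GST-RORγ LBD expressed in bacteria, 20–60 ng/well, with biotinylated coactivator peptide 200–600 nM, streptavidin-APC and Eu-anti-GST. Buffer: 20 mM Tris-HCl pH 6.8, 60 mM KCl, 1 mM DTT, 5 mM MgCl2, BSA; 1% DMSO. LANCE TR-FRET 665/615 nm ratio; IC50 from four-parameter logistic fit.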

SMILES	pIC50 (FF) (RORγ)	pIC50 (REN) (RORγ)	IC50 [1] [nM]
CC(C)(C)c1cc(-c2nc(S(N)(=O)=O)nn2CC2CCCCC2)cc(C(C)(C)C)c1 [Example 309, 1-(Cyclohexylmethyl)-5-(3,5-di-tert-butylphenyl)-1H-1,2,4-triazole-3-sulfonamide]	< 4.7	< 4.7	3160
CC(=O)NS(=O)(=O)c1nc(-c2cc(C(C)(C)C)cc(C(C)(C)C)c2)n(CC2CCCCC2)n1 [Example 310, N-((1-(Cyclohexylmethyl)-5-(3,5-di-tert-butylphenyl)-1H-1,2,4-triazol-3-yl)sulfonyl)acetamide]	< 4.7	< 4.7	12600
CC(C)(C)c1cc(-n2nc(C(N)=O)cc2CC2CCCCC2)cc(C(C)(C)C)c1 [Example 312, 5-(Cyclohexylmethyl)-1-(3,5-di-tert-butylphenyl)-1H-pyrazole-3-carboxamide]	6.2	6.3	251
CC(C)(C)c1cc(-n2nc(C(=O)NS(C)(=O)=O)cc2CC2CCCCC2)cc(C(C)(C)C)c1 [Example 312/1]	< 4.7	< 4.7	6310
CC(C)(C)c1cc(-n2nc(C(N)=O)c(Cl)c2CC2CCCCC2)cc(C(C)(C)C)c1 [Example 313, 4-Chloro-5-(cyclohexylmethyl)-1-(3,5-di-tert-butylphenyl)-1H-pyrazole-3-carboxamide]	6.3	6.4	100
CC(C)(C)c1cc(-n2nc(C(N)=O)c(Cl)c2CC2CCCCC2)cc(C(C)(C)C)n1 [Example 315, 4-Chloro-5-(cyclohexylmethyl)-1-(2,6-di-tert-butylpyridin-4-yl)-1H-pyrazole-3-carboxamide]	6.7	6.7	126
COC(C)(C)c1cc(-n2nc(C(N)=O)c(Cl)c2CC2CCCCC2)cc(C(C)(C)C)c1 [Example 315/1]	6.0/6.0/6.0	6.0/6.0/6.0	1000
Cn1c(C(=O)O)cc(-c2ccc(S(=O)(=O)NC(C)(C)C)c3ccccc23)c1CC1CCCCC1 [Example 317, 4-(4-(N-(tert-Butyl)sulfamoyl)naphthalen-1-yl)-5-(cyclohexylmethyl)-1-methyl-1H-pyrrole-2-carboxylic acid]	6.9	6.9	1260
CC(C)(C)NS(=O)(=O)c1ccc(-n2nc(C(=O)N[C@H]3C[C@H](C(=O)O)C3)nc2CC2CCCCC2)cc1C(C)(C)C [Example 318, trans-3-(1-(3-(tert-Butyl)-4-(N-(tert-butyl)sulfamoyl)phenyl)-5-(cyclohexylmethyl)-1H-1,2,4-triazole-3-carboxamido)cyclobutanecarboxylic acid]	< 4.7	< 4.7	2000
CC(C)(C)NS(=O)(=O)c1ccc(-n2nc(C(=O)NC3CCOCC3)nc2CC2CCCCC2)cc1C(C)(C)C [Example 318/1]	6.2	6.2	2510
Cc1c(C(=O)NC2CCOCC2)cc(-c2ccc(S(=O)(=O)NC(C)(C)C)c(C(F)(F)F)c2)n1CC(C(F)(F)F)C(F)(F)F [Example 319, 5-(4-(N-(tert-Butyl)sulfamoyl)-3-(trifluoromethyl)phenyl)-2-methyl-N-(tetrahydro-2H-pyran-4-yl)-1-(3,3,3-trifluoro-2-(trifluoromethyl)propyl)-1H-pyrrole-3-carboxamide]	6.0	5.8	5010
CC(=O)c1cc(-c2cc(C(C)(C)C)cc(C(C)(C)C)c2)n(CC2CCCCC2)c1C [Example 321, 1-(1-(Cyclohexylmethyl)-5-(3,5-di-tert-butylphenyl)-2-methyl-1H-pyrrol-3-yl)ethanone]	5.8	6.0	794
C=CCCC(=O)c1cc(-c2cc(C(C)(C)C)cc(C(C)(C)C)c2)n(CC2CCCCC2)c1C [Example 322, 1-(1-(Cyclohexylmethyl)-5-(3,5-di-tert-butylphenyl)-2-methyl-1H-pyrrol-3-yl)pent-4-en-1-one]	< 4.7	< 4.7	1580
Cc1c(C(=O)CC2CC2)cc(-c2cc(C(C)(C)C)cc(C(C)(C)C)c2)n1CC1CCCCC1 [Example 324, 1-(1-(Cyclohexylmethyl)-5-(3,5-di-tert-butylphenyl)-2-methyl-1H-pyrrol-3-yl)-2-cyclopropylethanone]	< 4.7	< 4.7	631
Cc1c(S(=O)(=O)CC2CC2)cc(-c2cc(C(C)(C)C)cc(C(C)(C)C)c2)n1CC1CCCCC1 [Example 325, 1-(Cyclohexylmethyl)-3-((cyclopropylmethyl)sulfonyl)-5-(3,5-di-tert-butylphenyl)-2-methyl-1H-pyrrole]	6.1	6.1	398
CCS(=O)(=O)c1cc(-c2cc(C(C)(C)C)cc(C(C)(C)C)c2)n(CC2CCCCC2)c1C [Example 325/1]	6.0	6.3	251
